According to patent US7312212B2, “Aminopiperidine derivatives” (priority 2002, dated 2007):

Test: MIC of test compounds against various organisms
Format: cell-based
Conditions: versus all of these organisms (S. epidermidis CL7, S. aureus WCUH29, S. pneumoniae 1629, S. pyogenes CN10, H. influenzae ATCC49247, E. faecalis 2, E. faecium 8, M. catarrhalis Ravisio, E. coli 7623)
Text: The MIC (μg/ml) of test compounds against various organisms may be determined:
S. epidermidis CL7, S. aureus WCUH29, S. pneumoniae 1629, S. pyogenes CN10, H. influenzae ATCC49247, E. faecalis 2, E. faecium 8, M. catarrhalis Ravisio, E. coli 7623.
For COc1ccc2nccc([C@@H](O)CN3CCC(NCc4ccc5c(n4)NC(=O)CS5)C(F)C3)c2c1 (single isomer, unassigned) [Example 6], the MIC was ≤ 2 µg/mL. In the case of COc1ccc2nccc([C@@H](O)CN3CCC(NCc4ccc5c(n4)NC(=O)CO5)C(F)C3)c2c1 (single isomer, unassigned) [Example 10], the MIC is reported as ≤ 2 µg/mL. For COc1ccc2nccc([C@@H](O)CN3CCC(NCc4ccc5c(n4)NC(=O)CO5)C(F)C3)c2n1 (single isomer, unassigned) [Example 20], the MIC was ≤ 2 µg/mL. For COc1ccc2nccc([C@@H](O)CN3CCC(NCc4nc5c(cc4Cl)OCC(=O)N5)C(F)C3)c2n1 (single isomer, unassigned) [Example 24], the MIC was ≤ 2 µg/mL. With COc1cc(F)c2nccc([C@@H](O)CN3CCC(NCc4ccc5c(n4)NC(=O)CO5)C(F)C3)c2c1 (single isomer, unassigned) [Example 26] the MIC was ≤ 2 µg/mL. With COc1cc(F)c2nccc([C@@H](O)CN3CCC(NCc4ccc5c(n4)NC(=O)CS5)C(F)C3)c2c1 (single isomer, unassigned) [Example 27] the MIC was ≤ 2 µg/mL.

Same assay, conditions: versus some of these organisms (panel of b704; which ones not stated)
For COc1ccc2nccc([C@@H](O)CN3CC[C@@H](NCc4ccc5c(n4)NC(=O)CS5)C[C@H]3C(F)(F)F)c2n1 [Example 37], the MIC was ≤ 16 µg/mL.
